According to PubChem BioAssay AID250 (DTP/NCI, 2004):
Where “and” joins values, the source holds several entries; their conditions need not be identical. Equal entries are not always repeated. Inconclusive results and toxic doses are left out.

Test system: BDF1 mice, L1210 leukemia sc, survival T/C
Assay: NCI In Vivo Anticancer Drug Screen. Data for tumor model L1210 Leukemia (subcutaneous) in B6D2F1 (BDF1) mice
Conditions: endpoint: median survival time, higher = longer survival
Method in brief: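 Transplantable tumor-bearing mice; survival or tumor size recorded; result = T/C, treated vs vehicle control.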

[1] = dose: 3.0 mg/kg/injection, schedule: Q01DX Z (sc), vehicle: saline
[2] = dose: 5.0 mg/kg/injection, schedule: Q01DX Z (sc), vehicle: saline
[3] = dose: 8.4 mg/kg/injection, schedule: Q01DX Z (sc), vehicle: saline
[4] = dose: 14.0 mg/kg/injection, schedule: Q01DX Z (sc), vehicle: saline
[5] = dose: 39.0 mg/kg/injection, schedule: Q01DX Z (sc), vehicle: saline
[6] = dose: 65.0 mg/kg/injection, schedule: Q01DX Z (sc), vehicle: saline

Question: Which T/C (dose: 37.5 mg/kg/injection, schedule: Q01DX009 (ip), vehicle: water) does the source give for `O=c1cnn(C2OC(CO)C(O)C2O)c(=O)[nH]1` (stereo not given) here?
Answer: 114 % of control

Question: What about the T/C (dose: 75.0 mg/kg/injection, schedule: Q01DX009 (ip), vehicle: water) of the same compound?
Answer: 118 % of control and 121 % of control

Question: And the T/C (dose: 75.0 mg/kg/injection, schedule: Q01DX009 (sc), vehicle: water)?
Answer: 120 % of control

Question: And the T/C (dose: 108.0 mg/kg/injection, schedule: Q01DX Z (sc), vehicle: other)?
Answer: 120 % of control

Question: And the T/C (dose: 150.0 mg/kg/injection, schedule: Q01DX009 (ip), vehicle: water)?
Answer: 117 % of control and 120 % of control

Question: And the T/C (dose: 150.0 mg/kg/injection, schedule: Q01DX009 (sc), vehicle: water)?
Answer: 121 % of control and 122 % of control

Question: What about the T/C (dose: 180.0 mg/kg/injection, schedule: Q01DX Z (sc), vehicle: other) of the same compound?
Answer: 120 % of control

Question: What about the T/C (dose: 300.0 mg/kg/injection, schedule: Q01DX009 (ip), vehicle: water) of the same compound?
Answer: 117 % of control and 123 % of control

Question: And the T/C (dose: 300.0 mg/kg/injection, schedule: Q01DX009 (sc), vehicle: water)?
Answer: 117 % of control and 122 % of control

Question: And the T/C (dose: 300.0 mg/kg/injection, schedule: Q01DX Z (sc), vehicle: other)?
Answer: 120 % of control

Question: What about the T/C (dose: 500.0 mg/kg/injection, schedule: Q01DX Z (sc), vehicle: other) of the same compound?
Answer: 120 % of control

Question: And the T/C (dose: 600.0 mg/kg/injection, schedule: Q01DX009 (ip), vehicle: water)?
Answer: 118 % of control

Question: What about the T/C (dose: 600.0 mg/kg/injection, schedule: Q01DX009 (sc), vehicle: water) of the same compound?
Answer: 117 % of control

Question: And the T/C (dose: 833.0 mg/kg/injection, schedule: Q01DX Z (sc), vehicle: other)?
Answer: 110 % of control

Question: What about the T/C (dose: 1000.0 mg/kg/injection, schedule: Q01DX Z (sc), vehicle: other) of the same compound?
Answer: 122 % of control

Question: And the T/C (dose: 1200.0 mg/kg/injection, schedule: Q01DX009 (ip), vehicle: water)?
Answer: 104 % of control and 117 % of control

Question: And the T/C (dose: 1200.0 mg/kg/injection, schedule: Q01DX009 (sc), vehicle: water)?
Answer: 114 % of control

Question: `CN=C(NC)c1ccc(NC(=O)Nc2ccc(NC(=O)Nc3ccc(C(=NC)NC)cc3)cc2)cc1` was tested. Which T/C [1] did it give?
Answer: 100 % of control

Question: What about the T/C [2] of the same compound?
Answer: 105 % of control

Question: What about the T/C [3] of the same compound?
Answer: 100 % of control

Question: What about the T/C [4] of the same compound?
Answer: 105 % of control

Question: What about the T/C [5] of the same compound?
Answer: 115 % of control

Question: And the T/C [6]?
Answer: 110 % of control

Question: Which T/C (dose: 14.0 mg/kg/injection, schedule: Q01DX Z (sc), vehicle: methylcellulose (MC)) does the source give for `CS(=O)(=O)OCCCl` here?
Answer: 90 % of control

Question: And the T/C (dose: 23.0 mg/kg/injection, schedule: Q01DX Z (sc), vehicle: methylcellulose (MC))?
Answer: 95 % of control

Question: And the T/C (dose: 39.0 mg/kg/injection, schedule: Q01DX Z (sc), vehicle: methylcellulose (MC))?
Answer: 90 % of control

Question: What about the T/C (dose: 65.0 mg/kg/injection, schedule: Q01DX Z (sc), vehicle: methylcellulose (MC)) of the same compound?
Answer: 100 % of control

Question: How did the T/C [1] turn out when `O=C(Nc1ccc(C2=NCCN2)cc1)c1ccc(C(=O)Nc2ccc(C3=NCCN3)cc2)cc1` was run?
Answer: 100 % of control

Question: What about the T/C [2] of the same compound?
Answer: 100 % of control and 104 % of control

Question: What about the T/C [3] of the same compound?
Answer: 109 % of control

Question: And the T/C [4]?
Answer: 104 % of control

Question: And the T/C (dose: 23.0 mg/kg/injection, schedule: Q01DX Z (ip), vehicle: water)?
Answer: 100 % of control

Question: And the T/C (dose: 23.0 mg/kg/injection, schedule: Q01DX Z (sc), vehicle: saline)?
Answer: 104 % of control and 109 % of control

Question: What about the T/C (dose: 39.0 mg/kg/injection, schedule: Q01DX Z (ip), vehicle: water) of the same compound?
Answer: 100 % of control

Question: What about the T/C [5] of the same compound?
Answer: 100 % of control

Question: What about the T/C (dose: 39.0 mg/kg/injection, schedule: Q01DX Z (sc), vehicle: water) of the same compound?
Answer: 100 % of control

Question: What about the T/C (dose: 65.0 mg/kg/injection, schedule: Q01DX Z (ip), vehicle: water) of the same compound?
Answer: 110 % of control

Question: And the T/C [6]?
Answer: 100 % of control and 104 % of control

Question: And the T/C (dose: 108.0 mg/kg/injection, schedule: Q01DX Z (sc), vehicle: saline)?
Answer: 100 % of control and 104 % of control

Question: What about the T/C (dose: 180.0 mg/kg/injection, schedule: Q01DX Z (ip), vehicle: water) of the same compound?
Answer: 115 % of control

Question: What about the T/C (dose: 180.0 mg/kg/injection, schedule: Q01DX Z (sc), vehicle: saline) of the same compound?
Answer: 104 % of control

Question: What about the T/C (dose: 200.0 mg/kg/injection, schedule: Q01DX Z (sc), vehicle: water) of the same compound?
Answer: 110 % of control and 100 % of control

Question: What about the T/C (dose: 300.0 mg/kg/injection, schedule: Q01DX Z (ip), vehicle: water) of the same compound?
Answer: 185 % of control

Question: And the T/C (dose: 300.0 mg/kg/injection, schedule: Q01DX Z (sc), vehicle: saline)?
Answer: 104 % of control

Question: And the T/C (dose: 300.0 mg/kg/injection, schedule: Q01DX Z (sc), vehicle: water)?
Answer: 100 % of control

Question: What about the T/C (dose: 400.0 mg/kg/injection, schedule: Q01DX Z (sc), vehicle: water) of the same compound?
Answer: 205 % of control and 105 % of control

Question: And the T/C (dose: 800.0 mg/kg/injection, schedule: Q01DX Z (sc), vehicle: water)?
Answer: 170 % of control and 220 % of control

Question: What does the source list for `CC(CNC(=O)CCOS(C)(=O)=O)NC(=O)CCOS(C)(=O)=O` (stereo not given)?
Answer: T/C (dose: 108.0 mg/kg/injection, schedule: Q01DX Z (sc), vehicle: methylcellulose (MC)): 105 % of control; T/C (dose: 180.0 mg/kg/injection, schedule: Q01DX Z (sc), vehicle: carboxymethylcellulose (CMC)): 175 % of control; T/C (dose: 180.0 mg/kg/injection, schedule: Q01DX Z (sc), vehicle: methylcellulose (MC)): 115 % of control; T/C (dose: 300.0 mg/kg/injection, schedule: Q01DX Z (sc), vehicle: carboxymethylcellulose (CMC)): 150 % of control; T/C (dose: 300.0 mg/kg/injection, schedule: Q01DX Z (sc), vehicle: methylcellulose (MC)): 120 % of control; T/C (dose: 500.0 mg/kg/injection, schedule: Q01DX Z (sc), vehicle: methylcellulose (MC)): 120 % of control; T/C (dose: 833.0 mg/kg/injection, schedule: Q01DX Z (sc), vehicle: carboxymethylcellulose (CMC)): 110 % of control; T/C (dose: 833.0 mg/kg/injection, schedule: Q01DX Z (sc), vehicle: methylcellulose (MC)): 110 % of control

Question: Which T/C (dose: 4.7 mg/kg/injection, schedule: Q01DX Z (sc), vehicle: saline) does the source give for `C=CC(COC(C)=O)N1CC1` (stereo not given) here?
Answer: 100 % of control

Question: What about the T/C (dose: 7.8 mg/kg/injection, schedule: Q01DX Z (sc), vehicle: saline) of the same compound?
Answer: 100 % of control

Question: And the T/C (dose: 13.0 mg/kg/injection, schedule: Q01DX Z (sc), vehicle: saline)?
Answer: 100 % of control

Question: What about the T/C (dose: 36.0 mg/kg/injection, schedule: Q01DX Z (sc), vehicle: saline) of the same compound?
Answer: 100 % of control

Question: And the T/C (dose: 60.0 mg/kg/injection, schedule: Q01DX Z (sc), vehicle: saline)?
Answer: 100 % of control

Question: `COC1=C(N)C(=O)c2nc(-c3nc(C(=O)O)c(C)c(-c4ccc(OC)c(OC)c4O)c3N)ccc2C1=O` was tested. Which T/C (dose: 0.02 mg/kg/injection, schedule: Q01DX009 (ip), vehicle: water) did it give?
Answer: 92 % of control

Question: And the T/C (dose: 0.02 mg/kg/injection, schedule: Q01DX009 (sc), vehicle: water)?
Answer: 93 % of control

Question: What about the T/C (dose: 0.05 mg/kg/injection, schedule: Q01DX009 (ip), vehicle: water) of the same compound?
Answer: 96 % of control

Question: And the T/C (dose: 0.05 mg/kg/injection, schedule: Q01DX009 (sc), vehicle: water)?
Answer: 98 % of control

Question: What about the T/C (dose: 0.1 mg/kg/injection, schedule: Q01DX009 (ip), vehicle: water) of the same compound?
Answer: 96 % of control

Question: And the T/C (dose: 0.1 mg/kg/injection, schedule: Q01DX009 (sc), vehicle: water)?
Answer: 96 % of control

Question: What about the T/C (dose: 0.2 mg/kg/injection, schedule: Q01DX009 (ip), vehicle: water) of the same compound?
Answer: 93 % of control

Question: What about the T/C (dose: 0.2 mg/kg/injection, schedule: Q01DX009 (sc), vehicle: water) of the same compound?
Answer: 94 % of control

Question: What about the T/C (dose: 0.25 mg/kg/injection, schedule: Q01DX009 (sc), vehicle: water) of the same compound?
Answer: 104 % of control

Question: And the T/C (dose: 0.4 mg/kg/injection, schedule: Q01DX009 (ip), vehicle: water)?
Answer: 102 % of control

Question: What about the T/C (dose: 0.4 mg/kg/injection, schedule: Q01DX009 (sc), vehicle: water) of the same compound?
Answer: 98 % of control

Question: And the T/C (dose: 0.5 mg/kg/injection, schedule: Q01DX009 (sc), vehicle: water)?
Answer: 94 % of control and 106 % of control

Question: And the T/C (dose: 1.0 mg/kg/injection, schedule: Q01DX009 (sc), vehicle: water)?
Answer: 96 % of control and 101 % of control

Question: What about the T/C (dose: 2.0 mg/kg/injection, schedule: Q01DX009 (sc), vehicle: water) of the same compound?
Answer: 94 % of control and 96 % of control

Question: What about the T/C (dose: 4.0 mg/kg/injection, schedule: Q01DX009 (sc), vehicle: water) of the same compound?
Answer: 94 % of control
